From ChEMBL document CHEMBL3639008, “Pyridopyrazines as highly selective ras-Raf-Mek-Erk signal transduction pathway inhibitors” (2014) come the findings set out here.

Broadly, the IC50 is the midpoint of a concentration-inhibition curve.

The assay concerns the target Mitogen-activated protein kinase 1 (Homo sapiens, UniProt P28482). Briefly: Cell-Free Kinase Assays: The inhibitory effect of the compounds according to the invention was tested on various serine/threonine, tyrosine and lipid kinases in enzymatic assays. Recombinant human kinases such as, for example, Erk2, were used in this case, partly as full-length kinases, partly as shortened fragments, but at least consisting of the functional kinase domains. The commercial kinase proteins (Proqinase, Upstate) were used as recombinant fusion proteins with GST (glutathion-S-transferase) or His-Tag. Depending on the type of substrate, the various kinase reactions were quantified by means of suitable ALPHA beads (Perkin-Elmer). MAPK-ALPHAs (e.g. Erk2): the test substance, 0.625 ng Erk2 (#14-173, Upstate), 10 uM ATP and 15 nM biotinylated MBP (myelin basic protein) substrate were incubated on a 384-well Optiplate (Perkin-Elmer) in a volume of 15 ul for 1 h in 25 mM Tris, 10 mM MgCl2, 0.1% Tween-20, 100 uM NaVO4, 2 mM DTT at pH 7.5.

Sequence of Mitogen-activated protein kinase 1 (P28482 whole entry, the tested form may be a part): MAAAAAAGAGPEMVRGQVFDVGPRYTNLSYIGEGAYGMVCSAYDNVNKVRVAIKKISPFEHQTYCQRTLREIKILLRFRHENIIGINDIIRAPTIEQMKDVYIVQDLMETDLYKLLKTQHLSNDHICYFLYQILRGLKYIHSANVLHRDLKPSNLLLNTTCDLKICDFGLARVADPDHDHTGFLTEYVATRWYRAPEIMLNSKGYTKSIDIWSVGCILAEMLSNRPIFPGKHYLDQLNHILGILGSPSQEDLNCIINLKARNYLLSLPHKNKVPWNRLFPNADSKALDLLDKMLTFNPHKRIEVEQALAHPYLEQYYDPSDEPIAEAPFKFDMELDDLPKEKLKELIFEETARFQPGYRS

Turning to `O=C(NCCCCc1ccccc1)Nc1ccc2ncc(-c3cnn(CC(F)F)c3)nc2n1`, the IC50 worked out at 2 nM.
